Some test systems named below: SR; MOLT-4; UO-31; UACC-257; SK-MEL-28; HCT-116; U-251; MCF7; HOP-62; OVCAR-8; NCI-H460; 786-0; HCC 2998; M14; HOP-92; CCRF-CEM; A549; TK-10; RPMI-8226; SK-OV-3.
What all share (test): inhibition of tumour cell growth, NCI panel, 48 h

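Results reflect a 48-hour exposure of cells in 96-well plates to compound at five concentrations. GI50 = concentration required for 50% inhibition of growth.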 The source made the active and inactive calls. No stated cut-off is given here; in the data, active = GI50 up to about 1.1 µM and inactive = higher.

With `COc1ccc(Nc2nc3ccc(C(F)(F)F)cc3nc2C(=O)O)cc1OC`, the GI50 in the assay on SR is 18.9 µM (inactive); with MOLT-4 it was 16.1 µM (inactive); in the assay on UO-31, 19.2 µM (inactive); in the assay with UACC-257 it was 30.6 µM (inactive); in the assay on SK-MEL-28, 41.6 µM (inactive); with HCT-116, 25.9 µM (inactive). Further, the GI50 in the assay on U-251 is 27.4 µM (inactive); in the assay on MCF7, 33.9 µM (inactive); in the assay with HOP-62, 25.2 µM (inactive); in the assay with OVCAR-8, 23.2 µM (inactive); in the assay on NCI-H460, 21.2 µM (inactive); in the assay on 786-0 it was 35 µM (inactive). In addition, in the assay with HCC 2998, the GI50 is 18.7 µM (inactive).

On to `Oc1c(CN2CCOCC2)ccc(CN2CCOCC2)c1O`, for which the GI50 is 24.5 µM (inactive) with SR; 24.2 µM (inactive) in the assay on MOLT-4; 22.9 µM (inactive) in the assay on M14; 18 µM (inactive) in the assay on UO-31; 27.2 µM (inactive) with UACC-257; 61.5 µM (inactive) in the assay on SK-MEL-28. In addition, the GI50 in the assay on HCT-116 is 38 µM (inactive); in the assay on HOP-92 it was > 100 µM (inactive); in the assay on U-251, 40.1 µM (inactive); in the assay on CCRF-CEM, 3.62 µM (inactive); in the assay with A549 it was 39.4 µM (inactive); in the assay with MCF7, 35.2 µM (inactive). Besides, the GI50 in the assay on TK-10 is 47.2 µM (inactive); in the assay with HOP-62, 42.3 µM (inactive); in the assay on OVCAR-8, 47.2 µM (inactive); in the assay on NCI-H460, 25.7 µM (inactive); in the assay with 786-0 it was 37.5 µM (inactive); in the assay on RPMI-8226, 50.1 µM (inactive). The GI50 in the assay with SK-OV-3 was 54 µM (inactive).

In the case of `CC(C)(C)c1ccc(O)c(CN(Cc2cc(C(C)(C)C)ccc2O)c2ccccc2)c1`, the GI50 in the assay with SR is 16 µM (inactive); in the assay on MOLT-4 it was 15.6 µM (inactive); in the assay with M14, 14.4 µM (inactive); in the assay on UO-31, 14.4 µM (inactive); in the assay with UACC-257, 2.48 µM (inactive); in the assay on SK-MEL-28 it was 17.5 µM (inactive). Further, the GI50 in the assay on HCT-116 is 19.4 µM (inactive); in the assay with HOP-92, 16.2 µM (inactive); in the assay on U-251, 15.1 µM (inactive); with CCRF-CEM, 32.4 µM (inactive); with A549 it was 17.5 µM (inactive); with MCF7, 18.8 µM (inactive). Besides, the GI50 in the assay on TK-10 is 17.1 µM (inactive); with HOP-62, 20.8 µM (inactive); in the assay on OVCAR-8 it was 19.1 µM (inactive); with NCI-H460, 16.5 µM (inactive); in the assay on 786-0, 16.6 µM (inactive); in the assay with RPMI-8226, 16.7 µM (inactive). In addition, the GI50 in the assay with SK-OV-3 is 29.4 µM (inactive).

`CC1=C(CCC(C)CO)O[C@H]2C[C@H]3[C@@H]4CC[C@H]5C[C@@H](O)CC[C@]5(C)[C@H]4CC(=O)[C@]3(C)[C@@H]12` (stereo not given in full): the GI50 with SR was 13.4 µM (inactive); in the assay on MOLT-4 it was 3.61 µM (inactive); in the assay with M14, 10.6 µM (inactive); with UO-31, 12.4 µM (inactive); with UACC-257, 14.8 µM (inactive); in the assay on SK-MEL-28, 22.1 µM (inactive). Besides, the GI50 in the assay with HCT-116 was 17.5 µM (inactive); in the assay on HOP-92, 23.9 µM (inactive); in the assay with U-251 it was 18 µM (inactive); in the assay with CCRF-CEM it was 4.89 µM (inactive); with A549, 13.8 µM (inactive); in the assay on MCF7 it was 23.6 µM (inactive). Further, the GI50 is 19.8 µM (inactive) in the assay on TK-10; 9.27 µM (inactive) with HOP-62; 11.7 µM (inactive) in the assay with OVCAR-8; 6.87 µM (inactive) in the assay on NCI-H460; 20.7 µM (inactive) in the assay with 786-0; 2.4 µM (inactive) with RPMI-8226. In the assay with SK-OV-3, the GI50 is 0.442 µM (active).
